Data taken from ChEMBL document CHEMBL1134927, “A series of C-terminal amino alcohol dipeptide A beta inhibitors” (Bioorg Med Chem Lett, 2002).

System: HEK293
Assay: Effective dose required to inhibit beta-amyloid formation in a human kidney cell line (HEK 293)
Format: functional
Conditions: read-out: ED50 (the source's name)

`C[C@H](NC(=O)Cc1cc(F)cc(F)c1)C(=O)N[C@@H](CO)c1ccccc1` showed an EC50 of over 10000 nM.

`C[C@H](NC(=O)[C@@H](O)c1cc(F)cc(F)c1)C(=O)N[C@H](CO)CC1CCCCC1` showed an EC50 of 200 nM.

Work on `CSCC[C@@H](CO)NC(=O)[C@H](C)NC(=O)Cc1cc(F)cc(F)c1` yielded an EC50 of 490 nM.

For `C[C@H](NC(=O)[C@@H](O)c1cc(F)cc(F)c1)C(=O)N[C@H](CO)CCCc1ccccc1`, the EC50 was 130 nM.

With `C[C@H](NC(=O)[C@@H](O)c1cc(F)cc(F)c1)C(=O)N[C@H](CO)CCc1ccccc1` the EC50 was 270 nM.

Work on `CSCC[C@@H](CO)NC(=O)[C@H](C)NC(=O)[C@@H](O)c1cc(F)cc(F)c1` yielded an EC50 of 960 nM.

Compound `C[C@H](NC(=O)Cc1cc(F)cc(F)c1)C(=O)N[C@@H](c1ccccc1)[C@H](O)c1ccccc1` has an EC50 of 3500 nM.

`CCCC[C@@H](CO)NC(=O)[C@H](C)NC(=O)Cc1cc(F)cc(F)c1` was tested, and the EC50 was 460 nM.

In the case of `CCCC[C@H](CO)NC(=O)[C@H](C)NC(=O)[C@@H](O)c1cc(F)cc(F)c1`, the EC50 is reported as 24500 nM.

Compound `C[C@H](NC(=O)Cc1cc(F)cc(F)c1)C(=O)N[C@H](CO)c1ccccc1` has an EC50 of 180 nM.

Work on `C[C@H](NC(=O)Cc1cc(F)cc(F)c1)C(=O)NCCO` yielded an EC50 of over 10000 nM.

`CCCC[C@@H](CO)NC(=O)[C@H](C)NC(=O)[C@@H](O)c1cc(F)cc(F)c1` was tested, and the EC50 was 600 nM.

`CCCC[C@H](NC(=O)[C@H](C)NC(=O)Cc1cc(F)cc(F)c1)C(=O)OC` gave an EC50 of 15 nM.

`CCCC[C@H](NC(=O)[C@@H](C)NC(=O)Cc1cc(F)cc(F)c1)C(=O)OC` gave an EC50 of 9400 nM.

Work on `C[C@H](NC(=O)Cc1cc(F)cc(F)c1)C(=O)N[C@H]1c2ccccc2C[C@H]1O` yielded an EC50 of 630 nM.

Compound `C[C@H](NC(=O)Cc1cc(F)cc(F)c1)C(=O)N[C@H](c1ccccc1)[C@@H](O)c1ccccc1` has an EC50 of over 10000 nM.

Work on `C[C@H](NC(=O)Cc1cc(F)cc(F)c1)C(=O)N(C)[C@H](C)[C@H](O)c1ccccc1` yielded an EC50 of over 10000 nM.

`C#CC[C@@H](CO)NC(=O)[C@H](C)NC(=O)Cc1cc(F)cc(F)c1` was tested, and the EC50 was 10000 nM.

With `C[C@H](NC(=O)Cc1cc(F)cc(F)c1)C(=O)N[C@H](C)[C@@H](O)c1ccccc1` the EC50 was over 10000 nM.

Work on `C[C@H](NC(=O)Cc1cc(F)cc(F)c1)C(=O)N[C@@H](C)[C@H](O)c1ccccc1` yielded an EC50 of over 10000 nM.

`COC(=O)C[C@@H](O)[C@H](Cc1ccccc1)NC(=O)[C@H](C)NC(=O)Cc1cc(F)cc(F)c1` showed an EC50 of over 10000 nM.

With `C[C@H](NC(=O)Cc1cc(F)cc(F)c1)C(=O)N(C)[C@@H](C)[C@@H](O)c1ccccc1` the EC50 was over 10000 nM.

`CCCC[C@H](CO)NC(=O)[C@H](C)NC(=O)Cc1cc(F)cc(F)c1` gave an EC50 of over 29000 nM.

For `C[C@H](NC(=O)Cc1cc(F)cc(F)c1)C(=O)N[C@H](CO)CCCc1ccccc1`, the EC50 was 870 nM.

With `C[C@H](NC(=O)Cc1cc(F)cc(F)c1)C(=O)N[C@H](CO)CC1CCCCC1` the EC50 was 800 nM.

`C#CC[C@@H](CO)NC(=O)[C@H](C)NC(=O)[C@@H](O)c1cc(F)cc(F)c1` gave an EC50 of 2300 nM.

Work on `C[C@H](NC(=O)Cc1cc(F)cc(F)c1)C(=O)N[C@H](CO)Cc1ccccc1` yielded an EC50 of 2700 nM.

With `C[C@H](NC(=O)Cc1cc(F)cc(F)c1)C(=O)NC1c2ccccc2C[C@@H]1O` (single isomer, unassigned) the EC50 was over 10000 nM.
